Test results from BindingDB's records for PubMed 33309162 (Universita Degli Studi di Palermo, 2021).

molecular target: PI3K catalytic subunit alpha (PIK3CA), rat; assay: Inhibition of PI3Kalpha in rat Rat1 cells reduction in phosphorylation of AKT at Ser473 residue incubated for 2 hrs by alpha screen assay

IC50, > 10 µM:
N#Cc1c(N)ncnc1N1CSC[C@H]1c1nc2cccc(Cl)c2c(=O)n1-c1cccs1
Cn1nccc1-n1c([C@@H]2CSCN2c2ncnc(N)c2C#N)nc2cccc(Cl)c2c1=O
CN1CCN(C)/C(=N/c2ccc([N+](=O)[O-])cc2C(=O)Nc2ccccc2)C1
